Measurements taken from patent US7994311B2, “Fluorescent chemosensors for metals based on dipyrrins” (priority 2006, dated 2011).

Columns and labels:
[1] = Fluorescence response of (4) to Zn^2+ concentration; type: binding; details: fluorescence emission
Description: We believe that the steric strain in conformations that would allow the orbital alignment needed for conjugation may be detrimental to high quantum yield. 1-pyrenyldipyrrin ((4), PYDPY1), is more fluorescent and sterically less demanding than (3). […] Indeed, as a Zn^2+ sensor, (4) is unsurpassed in its effective concentration range with Zn^2+, thus providing a rarely found degree of sensitivity.
FIG. 5 is a graph of fluorescence response and Zn^2+ concentration and (4).

[2] = Fluorescence quantum yield of dipyrrins, free and with Zn^2+; details: even with Cd^2+; Table 1, FIG. 2
Description: The conjugated (2) comprises a fluorophore with the […] moiety behaving as an ionphore. Benzaldehyde was used to form (2) because the properties shown by this type of sensing molecule with an benzene ring are representative of the general behavior of the family of compounds. In spite of the low fluorescence quantum yields of benzene, substituting benzene (ΦF=0.05±0.02) with a more intrinsically luminescent unit can make a great improvement in ΦF. An examples of another aromatic entity used instead of benzene is anthracene (ΦF0.27±0.03). When a […] attached to the benzene ring, the fluorescence quantum yield (ΦF) of (2) was very low and was determined to be 0.0011 due to the photo-induced electron transfer (PET), which is the intra-molecular quenching mechanism of an enamine group and an imine group in conjugate. When Zn^2+ bound with a […] moiety, PET was hindered and fluorescence emission intensity was recovered. […] Zn^2+, the fluorescence quantum yield was determined to be 0.07. […] (2), (3) and (4). The excitation wavelengths were 432, 475, 450 nm. The emission wavelengths were 496, 612, 497 and 599 nm for (2), (3) and (4). The ratio of fluorescence quantum yield [fluorescence quantum yield of metal ion/(2), (3) or (4) complex over fluorescence quantum yield of free ligand (10 μM)] was measured in acetonitrile.

[3] = Zn^2+ binding / complex formation (qualitative)

Row | Structure (SMILES) | Kd [1] | selectivity for Zn^2+ in comparison to other common metal ions [2] | binding of Zn^2+ (in words) [3]
1 | C1=CC(=C(c2ccc[nH]2)c2ccc3ccc4cccc5ccc2c3c45)N=C1 [(4), 1-pyrenyldipyrrin] | 20 µM | – | –
2 | C1=CC(=C(c2ccccc2)c2ccc[nH]2)N=C1 [Compound (2), 5-phenyl-4,6-dipyrrin] | – | Excellent selectivity | found to bind Zn^2+
